Laboratory results: US5266588A, “Compound produced by a strain of microtetraspora having antibacterial and neuritogenic activity” (Bristol-Myers Squibb Company, priority 1992, dated 1993)
Converted amounts (≈) assume the structure as drawn. “Also recorded” adds a separate entry of the source.

What was measured:
[1] = literature table; cited from earlier work
PC 12R cells = assay: Assay for the neurite outgrowth (PC 12R cells pre-treated with 0.1 ng/ml NGF); assay type: cell-based, rat; settings: for No. of Neurites: neurites over 10 mm long on monitor
Procedure: Assay for the Neurite Outgrowth
The PC 12R cell density was adjusted to 1×10^5 cells/ml and 180 μl aliquots of the cell suspension were added to assay wells in a 96 well microtiter plate (Suimitomo). […] For the positive controls, 5.0 ng/ml NGF was added to a well. As negative controls, PC 12R cells without NGF were also prepared. […] Then a 20 μl aliquot of a test sample at varied concentrations was added to the test well containing PC 12R cells pre-treated with 0.1 ng/ml NGF. After 24 hours' incubation, the medium was removed and the cells were fixed with 0.3% glutaraldehyde (Tokyo Kasei) in Dulbecco's phosphate buffered saline and stained with Harris hematoxylin solution (Merck).
The stained cells were observed under a phase-contrast microscope connected with a video camera-CRT system. PC 12R cells were magnified 500 times on the CRT monitor. The lengths of spikes of the negative control cells were measured in order to establish the standard length of a spike of the PC 12R cells.

B. subtilis PCI 219 = assay: Antibacterial activity (serial 2-fold dilution MIC); assay type: cell-based; settings: Bacillus subtilis, PCI219; Nutrient Agar, pH 7.0; 10^5 cells/ml; 32° C., 18 hr
Procedure: (§1) Assay for the Antibacterial Activity
(§2) The MIC's of BU-4514N against various test microorganisms were determined by the serial 2-fold dilution method after overnight incubation at 32° C. Nutrient agar medium (Difco) was used for Gram-positive and Gram-negative bacteria.
(§3) Medium: Nutrient Agar, pH 7.0
(§4) Inoculum size: 10^5 cells/ml
(§5) Incubations: 32° C., 18 hr

C. fleundii GN 7391 = assay: as above; assay type: cell-based; settings: Nutrient Agar, pH 7.0; 10^5 cells/ml; 32° C., 18 hr
Procedure: as §1, §2, §3, §4, §5

E. coli Juhl A15119 = assay: as above; assay type: cell-based; settings: Escherichia coli, JUHLA15119; Nutrient Agar, pH 7.0; 10^5 cells/ml; 32° C., 18 hr
Procedure: as §1, §2, §3, §4, §5

E. coli K12 = assay: as above; assay type: cell-based; settings: Escherichia coli, Nutrient Agar, pH 7.0, 10^5 cells/ml, 32° C., 18 hr
Procedure: as §1, §2, §3, §4, §5

E. coli NIHJ JC-2 = assay: as above; assay type: cell-based; settings: Escherichia coli, NIHJJC2; Nutrient Agar, pH 7.0; 10^5 cells/ml; 32° C., 18 hr
Procedure: as §1, §2, §3, §4, §5

K. pneumoniae PCI 602 = assay: as above; assay type: cell-based; settings: Klebsiella pneumoniae, PCI602; Nutrient Agar, pH 7.0; 10^5 cells/ml; 32° C., 18 hr
Procedure: as §1, §2, §3, §4, §5

M. luteus PCI 1001 = assay: as above; assay type: cell-based; settings: Micrococcus luteus, PCI1001; Nutrient Agar, pH 7.0; 10^5 cells/ml; 32° C., 18 hr
Procedure: as §1, §2, §3, §4, §5

P. aeruginosa A9843A = assay: as above; assay type: cell-based; settings: Pseudomonas aeruginosa, 18 h, pH 7
Procedure: as §1, §2, §3, §4, §5

S. aureus A15036 (MRSA) = assay: as above; assay type: cell-based; settings: Staphylococcus aureus, Nutrient Agar, pH 7.0, 10^5 cells/ml, 32° C., 18 hr
Procedure: as §1, §2, §3, §4, §5

S. aureus FDA 209P JC-1 = assay: as above; assay type: cell-based; settings: Staphylococcus aureus, FDA209P; Nutrient Agar, pH 7.0; 10^5 cells/ml; 32° C., 18 hr
Procedure: as §1, §2, §3, §4, §5

S. aureus Smith = assay: as above; assay type: cell-based; settings: Staphylococcus aureus; Nutrient Agar, pH 7.0; 10^5 cells/ml; 32° C., 18 hr
Procedure: as §1, §2, §3, §4, §5

S. typhi 901 = assay: as above; assay type: cell-based; settings: Salmonella enterica, 18 h, pH 7
Procedure: as §1, §2, §3, §4, §5

Gram-positive bacteria = assay: In vitro antibacterial activity against Gram-positive bacteria; assay type: cell-based
Procedure: as §1, §2

Solubility = assay type: physicochemical
[2] = test system: PC12 pheochromocytoma cells; settings: cited from earlier work
[3] = test system: retrograde neuronal cell death; septohippocampal connections; settings: cited from earlier work
[4] = test system: cholinergic neuron atrophy and spatial memory impairment; settings: aged rats; cited from earlier work
[5] = test system: adrenal medullary autografts; settings: intraperitoneal infusion, Parkinson's disease; cited from earlier work
[6] = 1.6 μg/ml, with 0.1 ng/ml NGF, 24 h
[7] = 3.1 μg/ml, with 0.1 ng/ml NGF, 24 h
[8] = 6.3 μg/ml, with 0.1 ng/ml NGF, 24 h
[9] = 12.5 μg/ml, sum of 5 fields/well and 3 wells, with 0.1 ng/ml NGF, 24 h
[10] = NGF 0.1 ng/ml (Running control)

CC1=C(/C=C/C(C)=C/C=C/C(C)=C/C(=O)O)C(C)(C)CCC1 [Retinoic acid]
Note (reported NGF mimic activity) [1]: NGF inducer

C=C1/C(=C\C=C2/CCC[C@]3(C)[C@@H]([C@H](C)CCCC(C)(C)O)CC[C@@H]23)C[C@@H](O)C[C@@H]1O [1,25-Dihydroxy-vitamin D3]
Note (reported NGF mimic activity) [1]: NGF inducer

CCCCCCCCCCCCCC(=O)O[C@@H]1[C@@H](C)[C@@]2(O)[C@@H](C=C(CO)C[C@]3(O)C(=O)C(C)=C[C@@H]23)[C@@H]2C(C)(C)[C@]12OC(C)=O [Phorbol 12-myristate 13-acetate]
Note (reported NGF mimic activity) [1]: NGF inducer

CC1=CC2CC(C)CCC2C(C)(C(=O)C2=C(O)CNC2=O)C1CC(C)OC1CCC(N)C(C)O1 (stereo not shown) [BU-4514N]
No. of Neurites (PC 12R cells; [6]): 2
No. of Cells (PC 12R cells; [6]): 1611
Ratio (No. of Neurites/No. of Cells) (PC 12R cells; [6]): 0.12%
No. of Neurites (PC 12R cells; [7]): 25
No. of Cells (PC 12R cells; [7]): 1848
Ratio (No. of Neurites/No. of Cells) (PC 12R cells; [7]): 1.4%
No. of Neurites (PC 12R cells; [8]): 149
No. of Cells (PC 12R cells; [8]): 1570
Ratio (No. of Neurites/No. of Cells) (PC 12R cells; [8]): 9.5%
No. of Neurites (PC 12R cells; [9]): 244
No. of Cells (PC 12R cells; [9]): 1123
Ratio (No. of Neurites/No. of Cells) (PC 12R cells; 12.5 μg/ml, with 0.1 ng/ml NGF, 24 h): 21.7%
neurite outgrowth in number and length (PC 12R cells; 12.5 to 6.3 μg/ml, compared to the negative control cells): significantly induces the neurite outgrowth in number and length
MIC (B. subtilis PCI 219): 0.8 µg/mL (≈ 1.69 µM)
MIC (C. fleundii GN 7391): > 100 µg/mL
MIC (E. coli Juhl A15119): > 100 µg/mL
MIC (E. coli K12): > 100 µg/mL
MIC (E. coli NIHJ JC-2): > 100 µg/mL
MIC (K. pneumoniae PCI 602): > 100 µg/mL
MIC (M. luteus PCI 1001): 1.6 µg/mL (≈ 3.37 µM)
MIC (P. aeruginosa A9843A): > 100 µg/mL
MIC (S. aureus A15036 (MRSA)): 3.1 µg/mL (≈ 6.53 µM)
MIC (S. aureus FDA 209P JC-1): 1.6 µg/mL (≈ 3.37 µM)
MIC (S. aureus Smith): 3.1 µg/mL (≈ 6.53 µM)
MIC (S. typhi 901): > 100 µg/mL
in vitro antibacterial activity (Gram-positive bacteria): good in vitro antibacterial activity
solubility (Solubility; acidic water): soluble
solubility (Solubility; dimethylsulfoxide): soluble
solubility (Solubility; methanol): soluble
solubility (Solubility; ordinary organic solvents, such as chloroform, ethyl acetate and benzene): practically insoluble
solubility (Solubility; water): practically insoluble

NGF: protein known to be essential for the development and maintenance of certain sympathetic and sensory neurons in the peripheral nervous system
No. of Cells (PC 12R cells; [10]): 1565
Ratio (No. of Neurites/No. of Cells) (PC 12R cells; [10]): 0.13%
No. of Neurites (PC 12R cells; [10]): 2
No. of Cells (PC 12R cells; NGF 5 ng/ml (Positive control)): 1053
Ratio (No. of Neurites/No. of Cells) (PC 12R cells; NGF 5 ng/ml (Positive control)): 6.8%
No. of Neurites (PC 12R cells; NGF 5 ng/ml (Positive control)): 72
sensitivity of PC 12R cells to NGF (PC 12R cells; as high as): 1 ng/mL
response of PC12 cells to NGF [2]: differentiate into sympathetic neuron-like cells; also recorded: differentiating into sympathetic neuron-like cells
behavioral recovery ([3]; after damage to the septohippocampal connections): promote behavioral recovery
retrograde neuronal cell death ([3]; intraventricular injections or infusions, young adult rats): prevent retrograde neuronal cell death
cholinergic neuron atrophy and spatial memory impairment [4]: ameliorate cholinergic neuron atrophy and spatial memory impairment
support of adrenal medullary autografts [5]: supports adrenal medullary autografts
